Results as given in US9670250B2, “Alpha-helical peptidomimetic inhibitors and methods using same” (The Trustees of the University of Pennsylvania, priority 2012, dated 2017).
Starred links: 1 amine or outer side, 2 acyl side, 3 side chain; linkers in the order of their positions; H or OH if unused. Positions of bridges follow the written chain, without caps; N, C: chain ends. Residues, ends and D or L forms follow the SMILES beside them. mXylylene = c1cc(C[*:1])cc(C[*:2])c1

Key:
Cathepsin K = target: T1, Cathepsin K (Homo sapiens, UniProt P43235); assay: in vitro fluorescence-based protease inhibition assay, cathepsin K; type: biochemical
T1 sequence (P43235 115-329): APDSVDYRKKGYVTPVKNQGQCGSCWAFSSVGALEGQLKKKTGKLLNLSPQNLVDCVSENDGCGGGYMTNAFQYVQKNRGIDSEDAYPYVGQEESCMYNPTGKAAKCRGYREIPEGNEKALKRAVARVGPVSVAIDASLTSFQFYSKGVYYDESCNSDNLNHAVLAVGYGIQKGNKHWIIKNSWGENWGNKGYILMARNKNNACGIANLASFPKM
Text: (§1) Thus, the present invention includes a series of potent and highly specific α-helical inhibitors for papain family cysteine proteases. […] These short α-helical peptidomimetic inhibitors are modeled after the natural pro-domain sequence but contain a cysteine substitution at specific residues in i,i+4 positions, as shown in FIG. 2B. These cysteine residues are used for stabilization of the helix utilizing an appropriate linker (Muppidi, et al., 2011, Chem Commun (Camb) 47:9396-9398). After synthesis, each inhibitor was tested against its respective protease using an in vitro fluorescence-based assay. For each enzyme, at least one inhibitor was identified that is relatively potent and highly specific for its individual protease. These inhibitors can be modified or otherwise optimized to attain higher potency and selectivity through identification of key interactions between the inhibitor and the active site amino acid residues. Such optimization involves visual examination of the protease crystal structure, and substitution with either non-natural or natural amino acids to exploit possible crucial non-covalent protein ligand interactions, such as hydrogen bond, electrostatic, hydrophobic, and Van der Waals interactions.

Calpain (Calpain-1) = target: T2, Calpain (Calpain-1) (Homo sapiens, UniProt P07384); assay: in vitro fluorescence-based protease inhibition assay, calpain; type: biochemical
T2 sequence (P07384 1-714): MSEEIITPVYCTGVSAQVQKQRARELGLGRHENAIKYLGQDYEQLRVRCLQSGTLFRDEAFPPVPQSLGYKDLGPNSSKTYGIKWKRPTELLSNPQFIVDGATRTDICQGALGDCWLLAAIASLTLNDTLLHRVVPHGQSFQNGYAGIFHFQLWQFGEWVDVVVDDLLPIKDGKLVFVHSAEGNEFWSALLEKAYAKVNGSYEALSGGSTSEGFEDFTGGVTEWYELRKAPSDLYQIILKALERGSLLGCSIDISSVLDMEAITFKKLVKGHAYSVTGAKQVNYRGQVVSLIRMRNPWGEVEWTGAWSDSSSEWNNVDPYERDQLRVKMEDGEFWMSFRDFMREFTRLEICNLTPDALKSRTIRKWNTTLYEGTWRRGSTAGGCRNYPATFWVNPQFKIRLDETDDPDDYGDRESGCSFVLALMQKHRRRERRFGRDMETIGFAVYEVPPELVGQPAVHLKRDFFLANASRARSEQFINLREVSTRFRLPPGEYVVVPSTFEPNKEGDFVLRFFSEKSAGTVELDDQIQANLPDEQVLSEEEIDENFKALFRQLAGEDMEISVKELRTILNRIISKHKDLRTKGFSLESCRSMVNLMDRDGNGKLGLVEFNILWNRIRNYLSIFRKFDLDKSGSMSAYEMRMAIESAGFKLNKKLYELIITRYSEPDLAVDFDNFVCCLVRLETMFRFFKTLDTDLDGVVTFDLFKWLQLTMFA
T2 sequence (P04632 1-268 partner): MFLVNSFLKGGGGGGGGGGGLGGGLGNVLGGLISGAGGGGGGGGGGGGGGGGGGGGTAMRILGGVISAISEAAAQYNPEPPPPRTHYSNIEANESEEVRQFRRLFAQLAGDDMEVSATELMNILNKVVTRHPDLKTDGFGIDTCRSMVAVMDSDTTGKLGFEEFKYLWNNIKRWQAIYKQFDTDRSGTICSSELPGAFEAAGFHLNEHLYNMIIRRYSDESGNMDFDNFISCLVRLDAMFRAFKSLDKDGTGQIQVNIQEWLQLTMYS
Text: as §1

[1] = Table 2, cathepsin S inhibitors

In the case of 35 (SCELVCKMTGL) [compound 35], the “Cathepsin K activity” value (Cathepsin K; between 200-500 nM & 50 μM) is reported as 80% activity.
For `CSCC[C@H](NC(=O)[C@H](CCCCN)NC(=O)[C@H](CCC(N)=O)NC(=O)[C@@H](NC(=O)[C@@H](NC(=O)[C@H](CCC(=O)O)NC(=O)[C@H](CCC(=O)O)NC(=O)[C@@H](N)CO)C(C)C)C(C)C)C(=O)N[C@H](C(=O)NCC(=O)N[C@@H](CC(C)C)C(=O)O)[C@@H](C)O` [SEQ ID NO:32, SEEVVQKMTGL, reference compound] (H-SEEVVQKMTGL-OH), the “effect on cathepsin K (inhibition or activation), in words” value (Cathepsin K) was “did not inhibit”.
A Ki (Cathepsin K; [1]) greater than 100 µM and a Ki (Calpain (Calpain-1); [1]) of 108 ± 1.28 µM were found for `CSCC[C@@H]1NC(=O)[C@H](CC(C)C)NC(=O)[C@H](CO)NC(=O)[C@@H](NC(=O)[C@@H](NC(=O)[C@H](CCC(=O)O)NC(=O)[C@H](CCC(=O)O)NC(=O)[C@H](CO)NC(=O)[C@@H](N)Cc2c[nH]c3ccccc23)C(C)C)CSCc2cccc(c2)CSC[C@@H](C(=O)N[C@@H](CO)C(=O)O)NC1=O` [compound 17] (H-WSEEVCSLMCS-OH; linker 6-10 via mXylylene; N-terminus and C-terminus assumed) in this work.
A Ki (Calpain (Calpain-1); [1]) of 88.4 ± 1.13 µM was found for `CSCC[C@@H]1NC(=O)[C@H](CC(C)C)NC(=O)[C@H](CO)NC(=O)[C@@H](NC(=O)[C@@H](NC(=O)[C@H](Cc2c[nH]c3ccccc23)NC(=O)[C@H](CCC(=O)O)NC(=O)[C@H](Cc2c[nH]c3ccccc23)NC(=O)[C@@H](N)[C@@H](C)O)C(C)C)CSCc2cccc(c2)CSC[C@@H](C(=O)N[C@@H](CO)C(=O)O)NC1=O` [compound 23] (H-TWEWVCSLMCS-OH; linker 6-10 via mXylylene; N-terminus and C-terminus assumed) in this work.
A Ki (Calpain (Calpain-1); [1]) of 85.5 ± 1.3 µM was found for `CSCC[C@@H]1NC(=O)[C@H](CC(C)C)NC(=O)[C@H](CO)NC(=O)[C@@H](NC(=O)[C@@H](NC(=O)[C@H](Cc2c[nH]c3ccccc23)NC(=O)[C@H](CCC(=O)O)NC(=O)[C@H](Cc2c[nH]c3ccccc23)NC(=O)[C@@H](N)Cc2c[nH]c3ccccc23)C(C)C)CSCc2cccc(c2)CSC[C@@H](C(=O)N[C@@H](CO)C(=O)O)NC1=O` [compound 25] (H-WWEWVCSLMCS-OH; linker 6-10 via mXylylene; N-terminus and C-terminus assumed) in this work.
A Ki (Cathepsin K; Table 4, calpain inhibitors) greater than 100 µM and a Ki (Calpain (Calpain-1); Table 4, calpain inhibitors) of 10.2 ± 2.9 µM were found for `CC[C@H](C)[C@H](N)C(=O)N1CCC[C@H]1C(=O)N1CCC[C@H]1C(=O)N[C@@H](CCCCN)C(=O)N[C@@H](Cc1ccc(O)cc1)C(=O)N[C@H]1CSCc2cccc(c2)CSC[C@@H](C(=O)O)NC(=O)[C@H](CC(C)C)NC(=O)[C@H](CC(C)C)NC(=O)[C@H](CCC(=O)O)NC1=O` [compound 65] in this work.
A Ki (Calpain (Calpain-1); Table 4, calpain inhibitors) of 35 ± 10.4 µM was found for `CC(C)C[C@@H]1NC(=O)[C@H](CC(C)C)NC(=O)[C@H](CCC(=O)O)NC(=O)[C@@H](NC(=O)[C@H](Cc2ccc(O)cc2)NC(=O)[C@H](CCCCN)NC(=O)[C@@H]2CCCN2C(=O)[C@@H]2CCCN2C(=O)[C@@H](N)CCC(N)=O)CSCc2cccc(c2)CSC[C@@H](C(=O)O)NC1=O` [compound 76] (H-QPPKYCELLC-OH; linker 6-10 via mXylylene; N-terminus and C-terminus assumed) in this work.
A Ki (Calpain (Calpain-1); Table 4, calpain inhibitors) greater than 100 µM was found for `CC[C@H](C)[C@H](N)C(=O)N1CCC[C@H]1C(=O)N1CCC[C@H]1C(=O)N[C@@H](CCCCN)C(=O)N[C@@H](C)C(=O)N[C@H]1CSCc2cccc(c2)CSC[C@@H](C(=O)O)NC(=O)[C@H](CC(C)C)NC(=O)[C@H](CC(C)C)NC(=O)[C@H](CCC(=O)O)NC1=O` [compound 81] (H-IPPKACELLC-OH; linker 6-10 via mXylylene; N-terminus and C-terminus assumed) in this work.
A Ki (Calpain (Calpain-1); Table 4, calpain inhibitors) of 30.9 ± 9.2 µM was found for `CC[C@H](C)[C@H](N)C(=O)N1CCC[C@H]1C(=O)N1CCC[C@H]1C(=O)N[C@@H](CCCCN)C(=O)N[C@@H](Cc1ccc(O)cc1)C(=O)N[C@H]1CSCc2cccc(c2)CSC[C@@H](C(=O)O)NC(=O)[C@H](CC(C)C)NC(=O)[C@H](C)NC(=O)[C@H](CCC(=O)O)NC1=O` [compound 86] (H-IPPKYCEALC-OH; linker 6-10 via mXylylene; N-terminus and C-terminus assumed) in this work.
